The source of these data is patent US9474780B2, “GIP and GLP-1 co-agonist compounds” (Eli Lilly and Company, priority 2015, dated 2016).

The term Emax denotes the size of the effect at its maximum, as opposed to the concentration needed.

The target of one assay is T1, human GLP-1R (Homo sapiens, UniProt P43220).
T1 construct: expressed in transfected cells; host or cells: 293HEK, Hygromycin-selected; crude plasma membranes
Nature of the assay: Functional hGLP-1R cAMP assay in HEK-293 clonal cells. Type of assay: cell-based. The conditions noted are these: HEK293; percent of maximal response of hGLP-1(7-36)NH2. (Cyclic AMP is a second messenger, typically raised through Gs and lowered through Gi signalling.)

The subject of the next assay is mouse islets. Nature of the assay: Mouse islet insulin secretion. The conditions noted are these: read-out: Mouse islet insulin secretion Mean ED50. Format: cell-based. The method, then:
To assess action of compounds of the present invention in a system representing physiological GLP-1R and GIP-R expression levels insulin secretion, compounds are tested for effects on insulin secretion from wild-type rodent islets.
After common bile duct cannulation in male C57B1/6 mice (22-26 g) or male Sprague-Dawley rats (approx. 250 g), the pancreas is distended with Hank's buffer (3 ml for mice or 10 ml for rats, containing 2% BSA and 0.75 mg/ml Clzyme collagenase (VitaCyte). Subsequently, tissues are digested in Hank's buffer at 37° C. for 11-13 minutes (mice) or 14-16 minutes for rat pancreata. Purified islets (Histopaque-1100 gradient [Sigma-Aldrich], […] at 750× gravity) are cultured overnight in RPMI-1640 medium (Invitrogen) containing 10% FBS, 100 U/ml penicillin and 100 μg/ml streptomycin, and preconditioned by starvation in Earle's Balanced Salt Solution (EBSS) supplemented with 0.1% BSA and 2.8 mM glucose. Subsequently, islets are incubated in EBSS (Invitrogen) supplemented with 0.1% BSA, 2.8-11.2 mM glucose and increasing levels of compound (6 batches of 4 islets/condition). GLP-1(7-36)amide (30 nM) is used as a positive control. Insulin is measured over 90 minutes in supernatant using the MSD Insulin Assay (Meso Scale, Gaithersburg, Md.).

For the next assay, the target named is Human GCGR (Homo sapiens, UniProt P47871). The assay is described as follows: Functional hGCGR cAMP assay in HEK-293 clonal cells.
Sequence of Human GCGR (P47871 26-477): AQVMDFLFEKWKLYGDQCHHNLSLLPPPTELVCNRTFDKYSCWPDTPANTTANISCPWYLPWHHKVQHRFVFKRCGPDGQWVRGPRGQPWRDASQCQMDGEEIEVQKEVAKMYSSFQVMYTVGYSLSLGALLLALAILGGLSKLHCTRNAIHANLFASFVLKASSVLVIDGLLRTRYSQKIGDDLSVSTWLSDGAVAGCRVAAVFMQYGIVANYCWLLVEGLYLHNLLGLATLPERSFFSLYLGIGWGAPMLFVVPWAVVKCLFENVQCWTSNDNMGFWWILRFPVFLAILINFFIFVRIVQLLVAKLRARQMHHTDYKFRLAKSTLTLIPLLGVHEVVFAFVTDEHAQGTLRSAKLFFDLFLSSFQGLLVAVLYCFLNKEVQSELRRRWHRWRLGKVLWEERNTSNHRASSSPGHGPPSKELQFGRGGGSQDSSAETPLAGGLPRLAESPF

T1 sequence (P43220 24-463): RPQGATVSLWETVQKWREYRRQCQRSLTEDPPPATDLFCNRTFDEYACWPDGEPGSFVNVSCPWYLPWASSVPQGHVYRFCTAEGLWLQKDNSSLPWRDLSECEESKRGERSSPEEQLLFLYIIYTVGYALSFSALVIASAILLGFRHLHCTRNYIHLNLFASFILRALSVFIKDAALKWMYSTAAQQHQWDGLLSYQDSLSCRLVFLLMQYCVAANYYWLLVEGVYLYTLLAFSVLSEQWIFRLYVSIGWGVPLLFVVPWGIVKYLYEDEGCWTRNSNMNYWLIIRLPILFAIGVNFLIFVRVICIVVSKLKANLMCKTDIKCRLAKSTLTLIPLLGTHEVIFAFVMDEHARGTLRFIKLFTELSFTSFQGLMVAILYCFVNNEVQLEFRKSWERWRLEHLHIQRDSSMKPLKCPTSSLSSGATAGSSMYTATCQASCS

In turn, `CC[C@H](C)[C@H](NC(=O)[C@H](CC(C)C)NC(=O)[C@H](Cc1c[nH]c2ccccc12)NC(=O)[C@H](CCC(N)=O)NC(=O)[C@@H](NC(=O)[C@H](Cc1ccccc1)NC(=O)[C@H](C)NC(=O)[C@H](CCCCNC(=O)COCCOCCNC(=O)COCCOCCNC(=O)CC[C@H](NC(=O)CC[C@H](NC(=O)CCCCCCCCCCCCCCCCC(=O)O)C(=O)O)C(=O)O)NC(=O)[C@H](CCC(N)=O)NC(=O)[C@H](C)NC(=O)[C@@H](NC(=O)[C@H](CCCCN)NC(=O)[C@H](CC(=O)O)NC(=O)[C@H](CC(C)C)NC(=O)C(C)(C)NC(=O)[C@@H](NC(=O)[C@H](CO)NC(=O)[C@H](Cc1ccc(O)cc1)NC(=O)[C@H](CC(=O)O)NC(=O)[C@H](CO)NC(=O)[C@@H](NC(=O)[C@H](Cc1ccccc1)NC(=O)[C@@H](NC(=O)CNC(=O)[C@H](CCC(=O)O)NC(=O)C(C)(C)NC(=O)[C@@H](N)Cc1ccc(O)cc1)[C@@H](C)O)[C@@H](C)O)[C@@H](C)CC)[C@@H](C)CC)C(C)C)C(=O)N[C@@H](C)C(=O)NCC(=O)NCC(=O)N1CCC[C@H]1C(=O)N[C@@H](CO)C(=O)N[C@@H](CO)C(=O)NCC(=O)N[C@@H](C)C(=O)N1CCC[C@H]1C(=O)N1CCC[C@H]1C(=O)N1CCC[C@H]1C(=O)N[C@@H](CO)C(N)=O` [Example 4] showed an Emax on human GLP-1R of 100 ± 5%. In addition, the EC50 in the assay with mouse islets was 3.5 nM; at Human GCGR, greater than 1000 nM.
